Biological target: SRPK1 (Homo sapiens)
Assay: In vitro inhibition of SR protein kinase 1 by compound dissolved in 100% DMSO using 5''-[gamma-33P]-triphosphate

IC50 [nM]	SMILES
870	O=C(O)CCc1ccc(-c2nc3cc4ccccc4cc3nc2-c2ccc(CCC(=O)O)s2)s1 [3-(5-{3-[5-(2-Carboxy-ethyl)-thiophen-2-yl]-benzo[g]quinoxalin-2-yl}-thiophen-2-yl)-propionic acid]
1140	COc1cc2nc3nc(-c4cccs4)c(-c4cccs4)nc3nc2cc1OC [7,8-Dimethoxy-2,3-di-thiophen-2-yl-pyrazino[2,3-b]quinoxaline]
6130	COC(=O)CCc1ccc(-c2nc3cc4ccccc4cc3nc2-c2ccc(CCC(=O)OC)s2)s1 [3-(5-{3-[5-(2-Methoxycarbonyl-ethyl)-thiophen-2-yl]-benzo[g]quinoxalin-2-yl}-thiophen-2-yl)-propionic acid methyl ester]
1360	c1csc(-c2nc3cc4ccccc4cc3nc2-c2cccs2)c1 [2,3-Di-thiophen-2-yl-benzo[g]quinoxaline]
820	O=C(O)CCCc1ccc(-c2nc3cc4ccccc4cc3nc2-c2ccc(CCCC(=O)O)s2)s1 [4-(5-{3-[5-(3-Carboxy-propyl)-thiophen-2-yl]-benzo[g]quinoxalin-2-yl}-thiophen-2-yl)-butyric acid]
40	O=C(O)c1ccc2cc3nc(-c4cccs4)c(-c4cccs4)nc3cc2c1 [2,3-Di-thiophen-2-yl-benzo[g]quinoxaline-7-carboxylic acid]
950	O=C(O)C1COc2cc3nc(-c4cccs4)c(-c4cccs4)nc3cc2O1 (stereo unspecified) [6,7-Di-thiophen-2-yl-2,3-dihydro-1,4-dioxa-5,8-diaza-anthracene-2-carboxylic acid]
16300	COc1cc2nc(-c3cccs3)c(-c3cccs3)nc2cc1OC [6,7-Dimethoxy-2,3-di-thiophen-2-yl-quinoxaline]
9610	Oc1cc2nc(-c3cccs3)c(-c3cccs3)nc2cc1O [2,3-Di-thiophen-2-yl-quinoxaline-6,7-diol]
23400	c1csc(-c2nc3cc4c(cc3nc2-c2cccs2)OCCO4)c1 [6,7-Di-thiophen-2-yl-2,3-dihydro-1,4-dioxa-5,8-diaza-anthracene]
11800	COC(=O)Cc1csc(-c2nc3cc4ccccc4cc3nc2-c2cc(CC(=O)OC)cs2)c1 [{5-[3-(4-Methoxycarbonylmethyl-thiophen-2-yl)-benzo[g]quinoxalin-2-yl]-thiophen-3-yl}-acetic acid methyl ester]
